From ChEMBL document CHEMBL5729595, “MASP-2 inhibitors and methods of use” (2023)

Assay: Enzymatic Assay for MASP-2: The assay was run at room temperature in an assay buffer containing 20 mM Hepes, pH 7.4, 140 mM NaCl and 0.1% Tween 20. Assay parameters were adjusted such that the assay was linear with respect to time, enzyme and substrate concentrations. Under these optimized assays conditions, IC50 values were equivalent to Ki values, except in a few cases of “tight binding” inhibitors. Cases of “tight binding” or possible “slow binding” inhibitors were handled by the methods described in Copeland R. A. (2013) Evaluation of Enzyme Inhibitors in Drug Discovery. 2nd Ed., John Wiley and Sons, Inc., Chapters 5-7.

Q: Which Ki does the source give for `C[C@H](NC(=O)[C@H]1C[C@H](c2ccccc2)CCN1)C(=O)NCc1ccc(C(=N)N)cc1` here?
A: The Ki was less than 500 nM.
